Patent publication US8299056B2 (Signal Pharmaceuticals, LLC, priority 2008, dated 2012)

Target: T1, Syk (Homo sapiens, UniProt P43405)
T1 construct: purchased Carna Biosciences
Assay: Syk HTRF assay
Format: biochemical
Details: IC50 activity level, read-out: Activity Level
In short: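 HTRF kinase assay in HEPES pH 7.6 buffer with MgCl2, DTT and Triton X100; start mix of 87.5 μM ATP and 80 nM biotinylated peptide, 1 h at room temperature. EDTA stop, then Eu-anti-phosphotyrosine/streptavidin-DyLight 647 detection, read as 665/615 nm emission ratio.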

| IC50 [nM] | SMILES |
| --- | --- |
| 500 to 1000 | NC(=O)c1ccc(Nc2nc3cccc(NC4CCCCC4)n3n2)cc1 [Example 560, 4-(5-(cyclohexylamino)-[1,2,4]triazolo[1,5-a]pyridin-2-ylamino)benzamide] |
| 0.005 to 250 | NC(=O)c1ccc(Nc2nc3cccc(N[C@H]4CCCNC4)n3n2)cc1 [Example 483, (S)-4-(5-(piperidin-3-ylamino)-[1,2,4]triazolo[1,5-a]pyridin-2-ylamino)benzamide] |
| 0.005 to 250 | CNC(=O)c1ccc(Nc2nc3cccc(NC4CCCC4)n3n2)cc1 [Example 400, 4-(5-(cyclopentylamino)-[1,2,4]triazolo[1,5-a]pyridin-2-ylamino)-N-methylbenzamide] |
| 500 to 1000 | Cc1cc(Nc2nc3cccc(N[C@H]4CC[C@@H](O)CC4)n3n2)c2c(c1)N(C)C(=O)C2 [Example 554, cis-4-(5-(4-hydroxycyclohexylamino)-[1,2,4]triazolo[1,5-a]pyridin-2-ylamino)-1,6-dimethylindolin-2-one] |

The remaining lines, values behind:

| SMILES | IC50 [nM] |
| --- | --- |
| Cc1cc(Nc2nc3cccc(CC4CCOCC4)n3n2)cc2[nH]nc(C)c12 [Example 548, N-(3,4-dimethyl-1H-indazol-6-yl)-5-((tetrahydro-2H-pyran-4-yl)methyl)-[1,2,4]triazolo[1,5-a]pyridin-2-amine] | 0.005 to 250 |
| CN(c1ccccc1)c1cccc2nc(Nc3ccccc3)nn12 [Example 472, N^5-methyl-N^2,N^5-diphenyl-[1,2,4]triazolo[1,5-a]pyridin-2,5-diamine] | 1000 to 10000 |
| Cc1n[nH]c2ncc(Nc3nc4cccc(CC5CCOCC5)n4n3)cc12 [Example 544, 3-methyl-N-(5-((tetrahydro-2H-pyran-4-yl)methyl)-[1,2,4]triazolo[1,5-a]pyridin-2-yl)-1H-pyrazolo[3,4-b]pyridin-5-amine] | 500 to 1000 |
| Nc1nccc2ccc(-c3cccc4nc(Nc5ccccc5)nn34)cc12 [Example 489, 7-(2-(phenylamino)-[1,2,4]triazolo[1,5-a]pyridin-5-yl)isoquinolin-1-amine] | 500 to 1000 |
| c1ccc(Nc2nc3cccc(-c4ccncc4)n3n2)cc1 [Example 528, N-phenyl-5-(pyridin-4-yl)-[1,2,4]triazolo[1,5-a]pyridin-2-amine] | 250 to 500 |

Same assay, conditions: activity levels A-D, read-out: Activity Level (IC50 in the Syk HTRF assay)

| IC50 [nM] | SMILES |
| --- | --- |
| 1000 to 10000 | N#Cc1ccc(Nc2nc3cccc(N[C@H]4CC[C@@H](O)CC4)n3n2)cn1 [Example 381] |
| 0.005 to 250 | O[C@H]1CC[C@@H](Nc2cccc3nc(Nc4ccc(Cl)cc4)nn23)CC1 [Example 353, cis-4-(2-(4-chlorophenylamino)-[1,2,4]triazolo[1,5-a]pyridin-5-ylamino)cyclohexanol] |
| 0.005 to 250 | COCc1n[nH]c2cc(Nc3nc4cccc(N[C@H]5CC[C@@H](O)CC5)n4n3)ccc12 [Example 231, cis-4-(2-(3-(methoxymethyl)-1H-indazol-6-ylamino)-[1,2,4]triazolo[1,5-a]pyridin-5-ylamino)cyclohexanol] |
| 1000 to 10000 | COc1cccc(Nc2nc3cccc(N[C@H]4CC[C@@H](O)CC4)n3n2)n1 [Example 342, cis-4-(2-(6-methoxypyridin-2-ylamino)-[1,2,4]triazolo[1,5-a]pyridin-5-ylamino)cyclohexanol] |
| 1000 to 10000 | O[C@H]1CC[C@H](CNc2cccc3nc(Nc4ccc(C(F)(F)F)cc4)nn23)CC1 [Example 375, trans-4-((2-(4-(trifluoromethyl)phenylamino)-[1,2,4]triazolo[1,5-a]pyridin-5-ylamino)methyl)cyclohexanol] |
| 1000 to 10000 | OC[C@H]1CCCC[C@H]1Nc1cccc2nc(Nc3ccc(C(F)(F)F)cc3)nn12 (stereo in doubt) [Example 356, (1S,2R)-(2-(2-(4-(trifluoromethyl)phenylamino)-[1,2,4]triazolo[1,5-a]pyridin-5-ylamino)cyclohexyl)methanol] |
| 500 to 1000 | CNC(=O)c1ccc(Nc2nc3cccc(-c4cccnc4)n3n2)cc1 [Example 325, N-methyl-4-(5-(pyridin-3-yl)-[1,2,4]triazolo[1,5-a]pyridin-2-ylamino)benzamide] |
| 250 to 500 | NC(=O)c1cccc(Nc2nc3cccc(N[C@H]4CC[C@@H](O)CC4)n3n2)c1 [Example 337, cis-3-(5-(4-hydroxycyclohexylamino)-[1,2,4]triazolo[1,5-a]pyridin-2-ylamino)benzamide] |
| 0.005 to 250 | CNc1ccc(Nc2nc3cccc(N[C@H]4CC[C@@H](O)CC4)n3n2)cn1 [Example 295, cis-4-(2-(6-(methylamino)pyridin-3-ylamino)-[1,2,4]triazolo[1,5-a]pyridin-5-ylamino)cyclohexanol] |
| 0.005 to 250 | OC[C@]1(O)CC[C@@H](Nc2cccc3nc(Nc4ccc(C(F)(F)F)cc4)nn23)CC1 [Example 227, cis-1-(hydroxymethyl)-4-(2-(4-(trifluoromethyl)phenylamino)-[1,2,4]triazolo[1,5-a]pyridin-5-ylamino)cyclohexanol] |
| 250 to 500 | Cc1n[nH]c2cc(Nc3nc4cccc(NCC5CCOCC5)n4n3)ccc12 [Example 220, N^2-(3-methyl-1H-indazol-6-yl)-N^5-((tetrahydro-2H-pyran-4-yl)methyl)-[1,2,4]triazolo[1,5-a]pyridin-2,5-diamine] |

More lines, now with the values behind:

| SMILES | IC50 [nM] |
| --- | --- |
| O=C1NCCCN1Cc1cccc2nc(Nc3ccc(C(F)(F)F)cc3)nn12 [Example 286, 1-((2-(4-(trifluoromethyl)phenylamino)-[1,2,4]triazolo[1,5-a]pyridin-5-yl)methyl)tetrahydropyrimidin-2(1H)-one] | 1000 to 10000 |
| OC[C@@H]1CCN(c2cccc3nc(Nc4ccc(C(F)(F)F)cc4)nn23)C1 [Example 326, (R)-(1-(2-(4-(trifluoromethyl)phenylamino)-[1,2,4]triazolo[1,5-a]pyridin-5-yl)pyrrolidin-3-yl)methanol] | 250 to 500 |
| CC1CNC(=O)CN1Cc1cccc2nc(Nc3ccc(C(F)(F)F)cc3)nn12 (stereo not shown) [Example 258, 5-methyl-4-((2-(4-(trifluoromethyl)phenylamino)-[1,2,4]triazolo[1,5-a]pyridin-5-yl)methyl)piperazin-2-one] | 500 to 1000 |
| CNC(=O)c1ccc(Nc2nc3cccc(-n4ccnc4)n3n2)cc1 [Example 241, 4-(5-(1H-imidazol-1-yl)-[1,2,4]triazolo[1,5-a]pyridin-2-ylamino)-N-methylbenzamide] | 1000 to 10000 |
| FC(F)(F)c1ccc(Nc2nc3cccc(OC[C@H]4CCCN4)n3n2)cc1 [Example 302, (R)-5-(pyrrolidin-2-ylmethoxy)-N-(4-(trifluoromethyl)phenyl)-[1,2,4]triazolo[1,5-a]pyridin-2-amine] | 1000 to 10000 |

Same assay, conditions: read-out: Activity Level (Syk HTRF assay IC50)

| IC50 [nM] | SMILES |
| --- | --- |
| 0.005 to 250 | CC1(C)C(=O)Nc2cc(Nc3nc4cccc(C[C@H]5CC[C@](C)(O)CC5)n4n3)ccc21 [Example 140, cis-6-(5-((4-hydroxy-4-methylcyclohexyl)methyl)-[1,2,4]triazolo[1,5-a]pyridin-2-ylamino)-3,3-dimethylindolin-2-one] |
| 500 to 1000 | CNC(=O)c1ccc(Nc2nc3cccc(-c4cccc(C(N)=O)c4)n3n2)cc1 [compound 18, 4-(5-(3-carbamoylphenyl)-[1,2,4]triazolo[1,5-a]pyridin-2-ylamino)-N-methylbenzamide] |
| 500 to 1000 | c1ccc(Nc2nc3cccc(-c4ccccc4)n3n2)cc1 [Example 98] |
| 250 to 500 | Nc1ccc(-c2cccc3nc(Nc4ccccc4)nn23)cc1 [compound 82, 5-(4-aminophenyl)-N-phenyl-[1,2,4]triazolo[1,5-a]pyridin-2-amine] |
| 1000 to 10000 | CC(=O)Nc1cccc(-c2cccc3nc(Nc4ccccc4)nn23)c1 [compound 78, N-(3-(2-(phenylamino)-[1,2,4]triazolo[1,5-a]pyridin-5-yl)phenyl)acetamide] |
| 500 to 1000 | CC1(C)NC(=O)c2cc(Nc3nc4cccc(NC5CCOCC5)n4n3)ccc21 [compound 128, 3,3-dimethyl-6-(5-(tetrahydro-2H-pyran-4-ylamino)-[1,2,4]triazolo[1,5-a]pyridin-2-ylamino)isoindolin-1-one] |
| 0.005 to 250 | CC1(C)C(=O)Nc2cc(Nc3nc4cccc(N5CC(O)C5)n4n3)ccc21 [Example 170, 6-(5-(3-hydroxyazetidin-1-yl)-[1,2,4]triazolo[1,5-a]pyridin-2-ylamino)-3,3-dimethylindolin-2-one] |

The remaining lines, values behind:

| SMILES | IC50 [nM] |
| --- | --- |
| c1ccc(-c2cccc3nc(Nc4cccnc4)nn23)cc1 [compound 75, 5-phenyl-N-(pyridin-3-yl)-[1,2,4]triazolo[1,5-a]pyridin-2-amine] | 500 to 1000 |
| CC1(C)C(=O)Nc2cc(Nc3nc4cccc(OC5CCOC5)n4n3)ccc21 (stereo in doubt) [Example 134, (R)-3,3-dimethyl-6-(5-(tetrahydrofuran-3-yloxy)-[1,2,4]triazolo[1,5-a]pyridin-2-ylamino)indolin-2-one] | 0.005 to 250 |
| CNC(=O)c1ccc(Nc2nc3cccc(-c4ccc(-c5c[nH]cn5)cc4)n3n2)cc1 [compound 9, 4-(5-(4-(1H-imidazol-4-yl)phenyl)-[1,2,4]triazolo[1,5-a]pyridin-2-ylamino)-N-methylbenzamide] | 0.005 to 250 |
| c1ccc(-c2cccc3nc(Nc4cncnc4)nn23)cc1 [compound 74, 5-phenyl-N-(pyrimidin-5-yl)-[1,2,4]triazolo[1,5-a]pyridin-2-amine] | 1000 to 10000 |
| c1ccc(-c2cccc3nc(Nc4ccc5cnoc5c4)nn23)cc1 [compound 48, N-(5-phenyl-[1,2,4]triazolo[1,5-a]pyridin-2-yl)benzo[d]isoxazol-6-amine] | 1000 to 10000 |
| COCc1n[nH]c2cc(Nc3nc4cccc(CC5CCOCC5)n4n3)ccc12 [compound 104, N-(3-(methoxymethyl)-1H-indazol-6-yl)-5-((tetrahydro-2H-pyran-4-yl)methyl)-[1,2,4]triazolo[1,5-a]pyridin-2-amine] | 0.005 to 250 |
| Cn1ncc2ccc(Nc3nc4cccc(-c5ccccc5)n4n3)cc21 [compound 54, N-(1-methyl-1H-indazol-6-yl)-5-phenyl-[1,2,4]triazolo[1,5-a]pyridin-2-amine] | 0.005 to 250 |
| Cc1n[nH]c2cc(Nc3nc4cccc(Cc5cc[nH]c(=O)c5)n4n3)ccc12 [Example 183, 4-((2-(3-methyl-1H-indazol-6-ylamino)-[1,2,4]triazolo[1,5-a]pyridin-5-yl)methyl)pyridin-2(1H)-one] | 0.005 to 250 |
